How the values were obtained:
[1] = solution in acetonitrile exposed to alternating periods of light and dark (365 nm), progress of drug liberation monitored; assay type: physicochemical; conditions: six alternating periods (FIG. 2)
Description: A solution of 2 in acetonitrile was then exposed to alternating periods of light and dark using the same conditions for light conditions as previously. […] The dose of liberated drug thus correlates with the duration of exposure to light. In this example, six periods of dosing and nondosing are alternated; this can be extended to any discrete dose required, in principle to the level of control provided from the light source, which includes molecule-scale control from low bursts of light deliverable from a laser source.

[2] = irradiation of a solution of the conjugate with 365 nm UV-A radiation, followed by UV-visible spectra; assay type: physicochemical; conditions: solution irradiated with 365 nm UV-A; judged from isosbestic points at 231 and 262 nm (FIG. 1)
Description: The behaviour of 2-4 is characterised by irradiating a solution using 365 nm UV-A radiation. As the photochemical reaction proceeds, the UV-visible spectrum of the reaction mixture changes (FIG. 1), reflecting the formation of 1 and drug and the consumption of conjugate. […] The identity of reaction products was verified by chromatographic separation, followed by spectroscopic analysis to be solely the corresponding drug and 1. The reaction proceeded in an analogous fashion to related nondrug examples 12 and all three conjugates 2-4 behaved similarly.

drug liberation reaction under light conditions ([1]; 365 nm light periods)	liberation of drug in dark conditions ([1]; dark periods)	side products of the photochemical reaction [2]	Compound
proceeds	stopped completely		COc1cc(OC)cc(C(OC(=O)c2ccccc2OC(C)=O)C(=O)c2ccccc2)c1 (stereo not drawn) [Compound 2]
		no side products	COc1cc(OC)cc(C(OC(=O)C(C)c2ccc(CC(C)C)cc2)C(=O)c2ccccc2)c1 (stereo not drawn) [Compound 3]
